Molecules are shown by their SMILES. Where a name gives a salt, the structure may show the parent alone.

The experiment addresses T1, MMP-2 (Homo sapiens, UniProt P08253).
T1 construct: made in house; host or cells: MMP-2-transfected p2AHT2 cells
T1 sequence (P08253 110-660): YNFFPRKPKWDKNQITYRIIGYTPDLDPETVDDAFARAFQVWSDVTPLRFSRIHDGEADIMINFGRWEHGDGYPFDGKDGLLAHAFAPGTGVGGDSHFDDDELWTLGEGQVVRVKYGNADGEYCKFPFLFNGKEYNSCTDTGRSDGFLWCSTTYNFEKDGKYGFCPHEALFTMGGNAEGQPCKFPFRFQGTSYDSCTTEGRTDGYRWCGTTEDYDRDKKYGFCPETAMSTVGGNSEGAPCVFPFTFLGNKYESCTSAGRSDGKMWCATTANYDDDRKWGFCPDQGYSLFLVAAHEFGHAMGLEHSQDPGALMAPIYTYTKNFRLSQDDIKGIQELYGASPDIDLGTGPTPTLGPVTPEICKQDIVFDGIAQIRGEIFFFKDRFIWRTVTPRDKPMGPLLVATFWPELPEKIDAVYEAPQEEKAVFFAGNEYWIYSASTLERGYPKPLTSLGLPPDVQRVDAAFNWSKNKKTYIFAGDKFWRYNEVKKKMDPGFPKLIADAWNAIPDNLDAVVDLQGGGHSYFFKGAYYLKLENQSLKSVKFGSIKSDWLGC
Put plainly: In vitro MMP inhibition, IC50 determination (fluorogenic substrate I). In kind it is biochemical. The conditions noted are these: values in parenthesis; 4 μM substrate I; room temperature. On the procedure:
Several hydroxamic acids and salts thereof were analyzed in in vitro assays to determine their ability to inhibit the MMP cleavage of peptide substrates. […] and IC50 constants were calculated from the assayed hydroxamic acid-MMP interactions.
Human recombinant MMP-1, MMP-2, MMP-9, MMP-13, and MMP-14 were used in this assay. All enzymes were prepared in Assignee's laboratories following usual laboratory procedures. Protocols for the preparation and use of these enzymes are available in the scientific literature. See, e.g., Enzyme Nomenclature (Academic Press, San Diego, Calif., 1992) (and the citations therein). See also, Freije et al., “Molecular cloning and expression of collagenase-3, a novel human matrix metalloproteinase produced by breast carcinomas,” J Biol. Chem., 269(24), 16766-16773 (1994).
The MMP-2 proenzyme was purified by gelatin Sepharose chromatography from MMP-2-transfected p2AHT2 cells provided by Dr. Gregory Goldberg of Washington University (St. Louis, Mo.).
All MMPs were activated using 4-aminophenylmercuric acetate (“APMA”, Sigma Chemical, St. Louis, Mo.) or trypsin. MMP-9 also was activated using human recombinant MMP-3 (purified in Assignee's laboratory following standard cloning and purification techniques).
Two fluorogenic, methoxycoumarin-containing polypeptide substrates were used in the MMP inhibition assays: [drawing 427] Here, “Dpa” is 3-(2,4-dinitrophenyl)-L-2,3-diaminopropionyl group, and “MCA” is 7-methoxycoumarin-4-yl acetyl. Substrate (I) was purchased from Baychem (Redwood City, Calif.), and substrate II was prepared Assignee's laboratory. Substrate I was used in the IC50 determination assays, while substrate II was used in the Ki determination assays. In the absence of MMP inhibitory activity, either substrate is cleaved at the Gly-Leu peptide bond. This cleavage separates the highly fluorogenic peptide from the 2,4-dinitrophenyl quencher, thus resulting in increase of fluorescent intensity.
The stock solutions of the assayed hydroxamic acids (or salts thereof) were prepared in 1% dimethyl sulfoxide (DMSO). These stock solutions were diluted in Buffer A (100 mM Tris-HCl, 100 mM NaCl, 10 mM CaCl2, 0.05% polyoxyethylene 23 lauryl ether, pH 7.5) to obtain solutions with different hydroxamic acid concentrations, i.e., assay solutions with different concentrations of the assayed MMP inhibitory compound. The experiment controls contained the same amount of Buffer A/DMSO as the assayed sample, but contained no hydroxamic acid (or salt thereof).
The assays from which the IC50 determinations were made were performed as follows. The MMPs were activated with either trypsin or APMA (4-aminophenylmercuric acetate, Sigma Chemical, St. Louis, Mo.). The assayed hydroxamic acid samples were incubated in Microfluor™ White Plates (Dynatech, Chantilly, Va.) and analyzed on a Perkin Elmer L550 plate reader (Norwalk, Conn.). The excitation wavelength was 328 nm, and the emission wavelength—415 nm. All samples (assayed hydroxamic acids and controls) were incubated in separate plates at room temperature in the presence of 4 μM of MMP substrate (I). As stated in the previous paragraph, samples containing varying concentrations of the same assayed hydroxamic acid were prepared. Inhibition was measured as a reduction in fluorescent intensity as a function of MMP inhibitor concentration.
The above protocols were used to determine IC50 constants and Ki values for the compounds in Examples 1-27 above. All values in Table 2 are given in nM units. The IC50 measurements are in parenthesis.

Regarding `CCCCc1ccc(N2CCN(S(=O)(=O)C3(C(=O)NO)CCN(CCOC)CC3)CC2)cc1` [Example 5, 4-{[4-(4-butylphenyl)piperazin-1-yl]sulfonyl}-N-hydroxy-1-(2-methoxyethyl)piperidine-4-carboxamide Dihydrochloride], the IC50 – broadly, the concentration that gives 50% inhibition – is less than 0.1 nM.
To `CCCCCc1ccc(C2CCN(S(=O)(=O)C3(C(=O)NO)CCN(CCOC)CC3)CC2)cc1` [Example 15, N-hydroxy-1-(2-methoxyethyl)-4-{[4-(4-pentylpheyl)piperidin-1-yl]sulfonyl}piperidine-4-carboxamide Hydrochloride] belongs 0.1 nM.

The values are drawn from US20050209278A1, “Piperidinyl- and piperazinyl-sulfonylmethyl hydroxamic acids and their use as protease inhibitors” (priority 2002, published 2005).
